Among the data in patent publication EP3383875B1, “3-PYRIMIDINYL PYRROLO [2,3-B] PYRIDINE AS ANTICANCER AGENTS AND THE PROCESS FOR THE PREPARATION THEREOF” (Council Of Scientific & Industrial Research, priority 2015, dated 2017) are inhibition values, retold here.

For experiment [1], the system named is MCF-7. In words: MTT assay on cancer cell line MCF-7. To be noted: Homo sapiens. The experiment is classed as cell-based, Human. Here is the method:
(§1) Cell culture, growth conditions and treatments. […] Different molecules were dissolved in DMSO and were delivered to cell cultures in complete medium.

Experiment [2] has as its system MDA-MB435. In words: MTT assay on cancer cell line MDA-MB435. The experiment is classed as cell-based, Human. The following applies: Homo sapiens, MDA-MB-435. Here is the method:
as §1

Experiment [3] relates to HCT-116. Put plainly: MTT assay on cancer cell line HCT-116. The following applies: Homo sapiens. The experiment is classed as cell-based, human. Here is the method: as §1
Experiment [4] concerns SHSY-5Y. Put plainly: MTT assay on cancer cell line SHSY-5Y. To be noted: Homo sapiens, SH-SY5Y. The experiment is classed as cell-based, human. Here is the method: as §1
Experiment [5] concerns the target CDK-9/Cyclin T1 (Homo sapiens, UniProt P50750). Put plainly: CDK inhibition assay, CDK-9/Cyclin T1 against substrate peptide, 33P-ATP. The experiment is classed as biochemical. To be noted: at 500 nM. Here is the method:
(50-1000 cpm/pmole) and incubated for 30 min at room temperature. Assays were stopped by addition of 5 µl of 0.5 M (3%) orthophosphoric acid and then harvested onto P81 Unifilter plates with a wash buffer of 50 mM orthophosphoric acid.

Experiment [6] deals with PC-3. Put plainly: MTT assay on cancer cell line PC-3. The experiment is classed as cell-based, human. To be noted: Homo sapiens. Here is the method: as §1
Experiment [7] addresses CDK-2/cyclin A (Homo sapiens, UniProt P24941). Put plainly: CDK inhibition assay, CDK-2/cyclin A against Histone HI, 33P-ATP. The experiment is classed as biochemical. The following applies: at 500 nM. Summed up:
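CDK-2/cyclin A (5-20 mU) phosphorylating Histone HI (1 mg/ml) in 50 mM Hepes pH 7.5, 100 mM NaCl, 10 mM Mg acetate, 0.02 mM [33P-γ-ATP], 30 min at room temperature. Stopped with orthophosphoric acid, captured on P81 filters for radiometric readout.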

Setting [8] is: MCF7, MCF-7, Table 8, read-out: In vitro cell inhibition, % of inhibition, MCF-7.
[9] abbreviates: MDA-MB435, at 10µM, Table 8, read-out: In vitro cell inhibition, % of inhibition, MDA-MB435.
Setting [10] is: at 10µM, Table 8, read-out: In vitro cell inhibition, % of inhibition, HCT-116.
The mark [11] stands for this setting: SHSY-5Y, Table 8, read-out: In vitro cell inhibition, % of inhibition, SHSY-5Y.
[12] abbreviates: read-out: inhibition against SHSY-5Y cell lines.
Where [13] appears, read: Table-7, read-out: In vitro CDK9 % of inhibition.
Where [14] appears, read: read-out: inhibition against CDK9.
[15] abbreviates: Table 8, read-out: In vitro cell inhibition, % of inhibition, PC-3.
Where [16] appears, read: Table-7, read-out: In vitro CDK2 % of inhibition.
Where [17] appears, read: read-out: inhibition against CDK2.
[18] abbreviates: MCF7, MCF-7, Table 9 (for reference), read-out: In vitro cell inhibition, % of inhibition, MCF-7.
The mark [19] stands for this setting: MCF7, read-out: inhibition against MCF-7 cell lines.
Setting [20] is: MDA-MB435, at 10µM, Table 9 (for reference), read-out: In vitro cell inhibition, % of inhibition, MDA-MB435.
[21] abbreviates: at 10µM, Table 9 (for reference), read-out: In vitro cell inhibition, % of inhibition, HCT-116.
Where [22] appears, read: SHSY-5Y, Table 9 (for reference), read-out: In vitro cell inhibition, % of inhibition, SHSY-5Y.
Where [23] appears, read: Table 9 (for reference), read-out: In vitro cell inhibition, % of inhibition, PC-3.
Where [24] appears, read: Table-6, read-out: In vitro CDK9 % of inhibition.
Setting [25] is: Table-6, read-out: In vitro CDK2 % of inhibition.

Where two headings read alike, the source gives them in different places.

Chain of CDK-9/Cyclin T1 (P50750 whole entry): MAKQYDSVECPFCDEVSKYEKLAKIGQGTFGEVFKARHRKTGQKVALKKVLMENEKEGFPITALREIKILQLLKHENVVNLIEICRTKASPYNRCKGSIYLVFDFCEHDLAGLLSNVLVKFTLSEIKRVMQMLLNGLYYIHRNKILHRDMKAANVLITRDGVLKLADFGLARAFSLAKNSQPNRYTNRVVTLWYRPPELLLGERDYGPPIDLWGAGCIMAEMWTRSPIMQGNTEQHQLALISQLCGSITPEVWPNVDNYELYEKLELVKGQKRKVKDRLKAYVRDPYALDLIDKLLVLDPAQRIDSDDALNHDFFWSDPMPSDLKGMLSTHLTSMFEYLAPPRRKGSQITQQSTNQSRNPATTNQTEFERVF
Chain of CDK-9/Cyclin T1 (O60563 whole entry partner): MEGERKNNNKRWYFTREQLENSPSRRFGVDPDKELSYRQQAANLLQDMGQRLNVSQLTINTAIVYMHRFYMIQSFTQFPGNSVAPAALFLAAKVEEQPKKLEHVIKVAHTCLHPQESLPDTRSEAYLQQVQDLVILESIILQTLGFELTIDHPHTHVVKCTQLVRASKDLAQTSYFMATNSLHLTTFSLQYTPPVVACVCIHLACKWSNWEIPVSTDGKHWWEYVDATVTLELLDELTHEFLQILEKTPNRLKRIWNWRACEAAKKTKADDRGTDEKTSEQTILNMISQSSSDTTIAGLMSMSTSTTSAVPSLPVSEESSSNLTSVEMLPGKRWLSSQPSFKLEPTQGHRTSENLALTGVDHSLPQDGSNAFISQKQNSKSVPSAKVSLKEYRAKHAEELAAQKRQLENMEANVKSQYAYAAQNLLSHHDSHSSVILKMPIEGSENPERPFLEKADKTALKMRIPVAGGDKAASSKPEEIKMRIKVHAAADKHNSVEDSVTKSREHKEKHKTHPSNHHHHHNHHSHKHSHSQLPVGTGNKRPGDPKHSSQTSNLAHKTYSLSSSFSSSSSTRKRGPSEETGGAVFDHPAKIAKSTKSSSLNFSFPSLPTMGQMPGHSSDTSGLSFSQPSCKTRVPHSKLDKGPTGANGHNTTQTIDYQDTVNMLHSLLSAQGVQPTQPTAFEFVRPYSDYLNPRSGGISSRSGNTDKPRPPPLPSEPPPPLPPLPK

`Clc1ccc(-c2cnc3[nH]cc(-c4ccnc(NCCc5ccccc5)n4)c3c2)cc1` [1B12, 4-(5-(4-chlorophenyl)-1H-pyrrolo[2,3-b]pyridin-3-yl)-N-phenethylpyrimidin-2-amine]: the inhibition at 10 µM in experiment [1] (setting [8]) is greater than 50%; in experiment [2] (setting [9]) it was less than 50%; in experiment [3] (setting [10]), greater than 50%; in experiment [4] (setting [11]), greater than 70%; in experiment [4] (setting [12]), greater than 70%; in experiment [6] (setting [15]) it was greater than 70%. Also, the inhibition at 0.5 µM in experiment [5] (setting [13]), in experiment [5] (setting [14]), in experiment [7] (setting [16]) and in experiment [7] (setting [17]) was greater than 70% each time.
Consider `CSc1ccccc1-c1cnc2[nH]cc(-c3ccnc(N)n3)c2c1` [1C9, 4-(5-(2-(methylthio)phenyl)-1H-pyrrolo[2,3-b]pyridin-3-yl)pyrimidin-2-amine], for which the inhibition at 10 µM in experiment [1] (setting [18]) is greater than 70%; in experiment [1] (setting [19]), greater than 70%; in experiment [2] (setting [20]), greater than 70%; in experiment [3] (setting [21]) it was greater than 50%; in experiment [4] (setting [22]) it was greater than 70%; in experiment [4] (setting [12]), greater than 70%. Also, the inhibition at 10 µM in experiment [6] (setting [23]) was greater than 70%. The inhibition at 0.5 µM in experiment [5] (setting [13]), in experiment [5] (setting [14]), in experiment [7] (setting [16]) and in experiment [7] (setting [17]) was greater than 70% in each case.
On to `Fc1ccc(-c2cnc3[nH]cc(-c4ccnc(NC5CCCC5)n4)c3c2)cc1` [1A22, N-cyclopentyl-4-(5-(4-fluorophenyl)-1H-pyrrolo[2,3-b]pyridin-3-yl)pyrimidin-2-amine], for which the inhibition at 10 µM is greater than 50% in experiment [1] (setting [8]); greater than 50% in experiment [1] (setting [19]); less than 50% in experiment [2] (setting [9]); greater than 50% in experiment [3] (setting [10]); greater than 70% in experiment [4] (setting [11]); greater than 70% in experiment [4] (setting [12]). Also, the inhibition at 10 µM in experiment [6] (setting [15]) is greater than 50%. In addition, the inhibition at 0.5 µM in experiment [5] (setting [24]) and in experiment [7] (setting [25]) was greater than 50% in each case.
Take `CCc1ccccc1-c1cnc2[nH]cc(-c3ccnc(N)n3)c2c1` [1C10, 4-(5-(2-ethylphenyl)-1H-pyrrolo[2,3-b]pyridin-3-yl)pyrimidin-2-amine]: the inhibition at 10 µM in experiment [1] (setting [18]), in experiment [1] (setting [19]), in experiment [2] (setting [20]), in experiment [3] (setting [21]), in experiment [4] (setting [22]) and in experiment [4] (setting [12]) was greater than 70% in each case. In addition, in experiment [6] (setting [23]), the inhibition at 10 µM was greater than 70%. Further, the inhibition at 0.5 µM in experiment [5] (setting [13]), in experiment [5] (setting [14]), in experiment [7] (setting [16]) and in experiment [7] (setting [17]) was greater than 70% throughout.
Regarding `FC(F)(F)c1ccc(-c2cnc3[nH]cc(-c4ccnc(NCCc5ccccc5)n4)c3c2)cc1` [1B1, N-phenethyl-4-(5-(4-(trifluoromethyl)phenyl)-1H-pyrrolo[2,3-b]pyridin-3-yl)pyrimidin-2-amine], the inhibition at 10 µM in experiment [1] (setting [8]) is greater than 50%; in experiment [1] (setting [19]), greater than 50%; in experiment [2] (setting [9]), less than 50%; in experiment [3] (setting [10]) it was greater than 50%; in experiment [4] (setting [11]), greater than 70%; in experiment [4] (setting [12]), greater than 70%. Moreover, the inhibition at 10 µM in experiment [6] (setting [15]) was greater than 70%. The inhibition at 0.5 µM in experiment [5] (setting [13]) and in experiment [7] (setting [16]) was less than 50% in each case.
For the molecule `Clc1ccc(-c2cnc3[nH]cc(-c4ccnc(NC5CC5)n4)c3c2)cc1` [1A12, 4-(5-(4-chlorophenyl)-1H-pyrrolo[2,3-b]pyridin-3-yl)-N-cyclopropylpyrimidin-2-amine], the inhibition at 10 µM in experiment [1] (setting [8]) was greater than 70%; in experiment [1] (setting [19]), greater than 70%; in experiment [2] (setting [9]), greater than 70%; in experiment [2] (at 10 µM, read-out: inhibition against MDAMB-435 cell lines) it was greater than 70%; in experiment [3] (setting [10]), greater than 70%; in experiment [3] (at 10 µM, read-out: inhibition against HCT-116 cell lines) it was greater than 70%. The inhibition at 10 µM was greater than 70% in experiment [4] (setting [11]), greater than 70% in experiment [4] (setting [12]), greater than 50% in experiment [6] (setting [15]) and greater than 50% in experiment [6] (read-out: inhibition against PC-3 cell lines). In addition, the inhibition at 0.5 µM in experiment [5] (setting [24]), in experiment [5] (setting [14]), in experiment [7] (setting [25]) and in experiment [7] (setting [17]) was greater than 70% each time.
For `COc1ccc(-c2cnc3[nH]cc(-c4ccnc(NC5CCCCCC5)n4)c3c2)cc1` [1A51, N-cycloheptyl-4-(5-(4-methoxyphenyl)-1H-pyrrolo[2,3-b]pyridin-3-yl)pyrimidin-2-amine], the inhibition at 10 µM was greater than 70% in experiment [1] (setting [8]); greater than 70% in experiment [1] (setting [19]); less than 50% in experiment [2] (setting [9]); greater than 50% in experiment [3] (setting [10]); greater than 50% in experiment [4] (setting [11]); less than 50% in experiment [6] (setting [15]). Further, the inhibition at 0.5 µM in experiment [5] (setting [13]), in experiment [5] (setting [14]), in experiment [7] (setting [16]) and in experiment [7] (setting [17]) was greater than 70% in each case.
Consider `c1cncc(-c2cnc3[nH]cc(-c4ccnc(NC5CCCCCC5)n4)c3c2)c1` [1A55, N-cycloheptyl-4-(5-(pyridin-3-yl)-1H-pyrrolo[2,3-b]pyridin-3-yl)pyrimidin-2-amine], for which the inhibition at 10 µM in experiment [1] (setting [8]) was less than 50%; in experiment [1] (setting [19]) it was less than 50%; in experiment [2] (setting [9]), greater than 50%; in experiment [3] (setting [10]), greater than 50%; in experiment [4] (setting [11]) it was greater than 70%; in experiment [4] (setting [12]), greater than 70%. In addition, the inhibition at 10 µM in experiment [6] (setting [15]) is greater than 50%. In addition, the inhibition at 0.5 µM in experiment [5] (setting [13]), in experiment [5] (setting [14]), in experiment [7] (setting [16]) and in experiment [7] (setting [17]) was greater than 70% throughout.
